Measured values as given in the NIST ThermoML archive (doi:10.1021/acs.jced.6b00210).

Experiment: xn = mol fraction of the nth substance listed
Details: 100 kPa, Liquid; for viscosity: Concentric cylinders viscometry; for mass density: Vibrating tube method

Nc1ccccc1 [aniline] + CCC(C)O
Details	mass density [kg/m3]	viscosity [mPa·s]
293.15 K, x1 = 0.0813	825	3.32
293.15 K, x1 = 0.16	842.5	3.07
293.15 K, x1 = 0.24	860.1	2.88
293.15 K, x1 = 0.3502	884.2	2.71
293.15 K, x1 = 0.44	903.7	2.66
293.15 K, x1 = 0.5601	929.6	2.72
293.15 K, x1 = 0.65	948.8	2.81
293.15 K, x1 = 0.74	967.8	3
293.15 K, x1 = 0.8499	990.8	3.4
293.15 K, x1 = 0.94	1009.4	3.89
293.15 K, x1 = 1	1021.7	4.37
298.15 K, x1 = 0.0813	820.7	2.77
298.15 K, x1 = 0.16	838.1	2.55
298.15 K, x1 = 0.24	855.7	2.39
298.15 K, x1 = 0.3502	879.7	2.25
298.15 K, x1 = 0.44	899.2	2.21
298.15 K, x1 = 0.5601	924.9	2.24
298.15 K, x1 = 0.65	944.1	2.33
298.15 K, x1 = 0.74	963.1	2.52
298.15 K, x1 = 0.8499	986.2	2.92
298.15 K, x1 = 0.94	1004.9	3.38
298.15 K, x1 = 1	1017.4	3.8
303.15 K, x1 = 0.0813	816.3	2.3
303.15 K, x1 = 0.16	833.6	2.12
303.15 K, x1 = 0.24	851.1	1.97
303.15 K, x1 = 0.3502	875.1	1.83
303.15 K, x1 = 0.44	894.5	1.78
303.15 K, x1 = 0.5601	920.4	1.77
303.15 K, x1 = 0.65	939.6	1.83
303.15 K, x1 = 0.74	958.6	1.97
303.15 K, x1 = 0.8499	981.8	2.32
303.15 K, x1 = 0.94	1000.6	2.77
303.15 K, x1 = 1	1013.2	3.13
308.15 K, x1 = 0.0813	811.9	1.94
308.15 K, x1 = 0.16	829.1	1.81
308.15 K, x1 = 0.24	846.6	1.69
308.15 K, x1 = 0.3502	870.5	1.56
308.15 K, x1 = 0.44	890	1.51
308.15 K, x1 = 0.5601	915.8	1.5
308.15 K, x1 = 0.65	935	1.55
308.15 K, x1 = 0.74	954.2	1.69
308.15 K, x1 = 0.8499	977.4	2.01
308.15 K, x1 = 0.94	996.4	2.43
308.15 K, x1 = 1	1009	2.75
313.15 K, x1 = 0.0813	807.5	1.65
313.15 K, x1 = 0.16	824.7	1.52
313.15 K, x1 = 0.24	842.1	1.416
313.15 K, x1 = 0.3502	865.9	1.33
313.15 K, x1 = 0.44	885.3	1.29
313.15 K, x1 = 0.5601	911.2	1.3
313.15 K, x1 = 0.65	930.5	1.35
313.15 K, x1 = 0.74	949.6	1.49
313.15 K, x1 = 0.8499	973	1.78
313.15 K, x1 = 0.94	992	2.14
313.15 K, x1 = 1	1004.7	2.43
318.15 K, x1 = 0.0813	802.9	1.42
318.15 K, x1 = 0.16	820	1.31
318.15 K, x1 = 0.24	837.3	1.21
318.15 K, x1 = 0.3502	861.1	1.13
318.15 K, x1 = 0.44	880.5	1.11
318.15 K, x1 = 0.5601	906.4	1.13
318.15 K, x1 = 0.65	925.7	1.19
318.15 K, x1 = 0.74	945	1.31
318.15 K, x1 = 0.8499	968.5	1.58
318.15 K, x1 = 0.94	987.6	1.9
318.15 K, x1 = 1	1000.4	2.14
323.15 K, x1 = 0.0813	798.2	1.24
323.15 K, x1 = 0.16	815.2	1.15
323.15 K, x1 = 0.24	832.5	1.07
323.15 K, x1 = 0.3502	856.2	1
323.15 K, x1 = 0.44	875.5	0.99
323.15 K, x1 = 0.5601	901.3	1.014
323.15 K, x1 = 0.65	920.7	1.075
323.15 K, x1 = 0.74	940	1.189
323.15 K, x1 = 0.8499	963.5	1.46
323.15 K, x1 = 0.94	982.7	1.75
323.15 K, x1 = 1	995.5	1.96
